Data taken from patent US6525059B1, “Substituted pyrazoles as p38 kinase inhibitors” (G. D. Searle & Company, priority 1998, dated 2003).
Like-named read-outs stand apart in the source and are kept apart here.

Assays:
TNF-α = assay: LPS stimulation of TNF production by U937 cells; type: cell-based, human; conditions: for inhibition at 1 µM / IC50: Homo sapiens; for inhibition at 1 µM: U-937, @ 1.0 uM, read-out: U937 Cell % inhib @ conc.; for U937 Cell % inhib @ conc.: @ 1.0 uM
Procedure, shortened: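 PMA-differentiated human U937 cells (20 ng/ml PMA, 24 h, then 24-48 h rest) at 2 million cells/ml, 0.1% DMSO final, stimulated with E. coli LPS (100 ng/ml final) for 4 h at 37° C. TNF-α in medium measured by ELISA; IC50 in μM.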

human p38 kinase alpha = biological target: T1, human p38 kinase alpha (Homo sapiens, UniProt Q16539); assay: p38 kinase in vitro assay, phosphorylation of biotinylated PHAS-I with gamma 32P-ATP; type: biochemical; conditions: for inhibition at 1 µM / inhibition at 10 µM: read-out: P38 alpha kinase % inhib @ conc.
T1 construct: The coding region of the human p38a cDNA was obtained by PCR-amplification from RNA isolated from the human monocyte cell line THP.1; GST (N); made in house; host or cells: E. coli DH10B
T1 sequence (Q16539 whole entry): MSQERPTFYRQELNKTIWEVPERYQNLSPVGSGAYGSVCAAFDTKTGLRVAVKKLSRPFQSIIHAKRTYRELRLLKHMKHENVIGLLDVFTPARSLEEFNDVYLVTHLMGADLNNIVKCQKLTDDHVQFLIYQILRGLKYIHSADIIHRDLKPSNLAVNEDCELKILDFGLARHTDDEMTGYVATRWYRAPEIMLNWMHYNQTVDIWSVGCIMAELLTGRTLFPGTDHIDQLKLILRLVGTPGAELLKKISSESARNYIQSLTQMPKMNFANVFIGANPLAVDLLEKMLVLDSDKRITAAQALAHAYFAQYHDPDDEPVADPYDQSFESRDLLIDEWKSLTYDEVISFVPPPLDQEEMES
Procedure, shortened: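 Radiometric filter-capture read-out: streptavidin plates trap biotin-PHAS-I labelled by activated (MKK6) human p38α from γ-32P-ATP. Buffer 25 mM HEPES pH 7.5, 10 mM magnesium acetate, 50 μM cold ATP; reactions 1 h or overnight at 30 °C; inhibitors 10-fold dilutions 100 to 0.001 μM, triplicates, 1% DMSO.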

[1] = read-out: P38 alpha kinase IC50
[2] = U-937, TNF production, LPS-stimulated human U937 cells, read-out: U937 Cell IC50
[3] = U-937, LPS-stimulated U937 cells, read-out: U937 IC50
[4] = p38α in vitro, PHAS-I assay procedure, read-out: p38^1 IC50

O=C(NCc1[nH]nc(-c2ccc(F)cc2)c1-c1ccncc1)c1c(F)ccc(F)c1F [Example B-0278]
inhibition at 1 µM (TNF-α): 36% | IC50 (human p38 kinase alpha; [1]): 1260 nM

CCCCOc1ccc(S(=O)(=O)NCc2[nH]nc(-c3ccc(F)cc3)c2-c2ccncc2)cc1 [Example B-0129]
inhibition at 1 µM (TNF-α): 31% | inhibition at 1 µM (human p38 kinase alpha): 51%

Cc1noc(C)c1S(=O)(=O)NCc1[nH]nc(-c2ccc(F)cc2)c1-c1ccncc1 [Example B-0251]
inhibition at 1 µM (TNF-α): 1% | IC50 (human p38 kinase alpha; [1]): 310 nM

CC(C)S(=O)(=O)NCc1[nH]nc(-c2ccc(F)cc2)c1-c1ccncc1 [Example B-0106]
IC50 (TNF-α; [2]): 5000 nM | inhibition at 1 µM (human p38 kinase alpha): 62%

C[C@@H](NS(=O)(=O)c1ccc(F)cc1F)c1[nH]nc(-c2ccc(F)cc2)c1-c1ccncc1 [Example B-0390]
inhibition at 1 µM (TNF-α): 55% | IC50 (human p38 kinase alpha; [1]): 89 nM

O=C(NCCc1ccccc1)NCc1[nH]nc(-c2ccc(F)cc2)c1-c1ccncc1 [Example B-0157]
inhibition at 1 µM (TNF-α): 9% | inhibition at 10 µM (human p38 kinase alpha): 48%

C[C@@H](NC(=O)N1CCOCC1)c1[nH]nc(-c2ccc(F)cc2)c1-c1ccncc1 [Example B-0405]
inhibition at 1 µM (TNF-α): 30% | IC50 (human p38 kinase alpha; [1]): 790 nM

COC(=O)CCC(=O)NCc1[nH]nc(-c2ccc(F)cc2)c1-c1ccncc1 [Example B-0077]
IC50 (TNF-α; [2]): 10000 nM | IC50 (human p38 kinase alpha; [1]): 800 nM

C[C@@H](NS(=O)(=O)c1cccc2nonc12)c1[nH]nc(-c2ccc(F)cc2)c1-c1ccncc1 [Example B-0477]
inhibition at 1 µM (TNF-α): 96% | IC50 (human p38 kinase alpha; [1]): 1480 nM

C[C@@H](NC(=O)c1ccccc1Br)c1[nH]nc(-c2ccc(F)cc2)c1-c1ccncc1 [Example B-0526]
inhibition at 1 µM (TNF-α): 87% | IC50 (human p38 kinase alpha; [1]): 31 nM

C[C@@H](NC(=O)c1cccc(Br)c1)c1[nH]nc(-c2ccc(F)cc2)c1-c1ccncc1 [Example B-0362]
inhibition at 1 µM (TNF-α): 27% | IC50 (human p38 kinase alpha; [1]): 520 nM

CCCC(CCC)C(=O)NCc1[nH]nc(-c2ccc(F)cc2)c1-c1ccncc1 [Example B-0057]
inhibition at 1 µM (TNF-α): 29% | inhibition at 1 µM (human p38 kinase alpha): 96%

C[C@@H](NC(=O)Nc1ccc(F)cc1)c1[nH]nc(-c2ccc(F)cc2)c1-c1ccncc1 [Example B-0406]
inhibition at 1 µM (TNF-α): 35% | IC50 (human p38 kinase alpha; [1]): 540 nM

C[C@@H](NC(=O)NCc1ccccc1)c1[nH]nc(-c2ccc(F)cc2)c1-c1ccncc1 [Example B-0403]
IC50 (TNF-α; [2]): 2420 nM | IC50 (human p38 kinase alpha; [1]): 1770 nM

C[C@@H](NS(=O)(=O)c1c(Cl)cccc1Cl)c1[nH]nc(-c2ccc(F)cc2)c1-c1ccncc1 [Example B-0453]
inhibition at 1 µM (TNF-α): 75% | IC50 (human p38 kinase alpha; [1]): 470 nM

COc1cccc(CC(=O)N[C@H](C)c2[nH]nc(-c3ccc(F)cc3)c2-c2ccncc2)c1 [Example B-0373]
inhibition at 1 µM (TNF-α): 18% | IC50 (human p38 kinase alpha; [1]): 450 nM

C[C@@H](NC(=O)C(C)(C)C)c1[nH]nc(-c2ccc(F)cc2)c1-c1ccncc1 [Example B-0424]
inhibition at 1 µM (TNF-α): 32% | IC50 (human p38 kinase alpha; [1]): 83 nM

O=C(NCc1[nH]nc(-c2ccc(F)cc2)c1-c1ccncc1)c1cc(F)cc(C(F)(F)F)c1 [Example B-0288]
inhibition at 1 µM (TNF-α): 26% | IC50 (human p38 kinase alpha; [1]): 4460 nM

O=S(=O)(NCc1[nH]nc(-c2ccc(F)cc2)c1-c1ccncc1)c1ccccc1C(F)(F)F [Example B-0236]
inhibition at 1 µM (TNF-α): 46% | IC50 (human p38 kinase alpha; [1]): 77 nM

O=C(NCc1[nH]nc(-c2ccc(F)cc2)c1-c1ccncc1)c1cccc(Br)c1 [Example B-0073]
inhibition at 1 µM (TNF-α): 24% | inhibition at 1 µM (human p38 kinase alpha): 91%

Cc1onc(-c2ccccc2Cl)c1C(=O)NCc1[nH]nc(-c2ccc(F)cc2)c1-c1ccncc1 [Example B-0056]
inhibition at 1 µM (TNF-α): 21% | inhibition at 1 µM (human p38 kinase alpha): 96%

O=C(NCc1[nH]nc(-c2ccc(F)cc2)c1-c1ccncc1)C1CC1 [Example B-0089]
IC50 (TNF-α; [2]): 3330 nM | IC50 (human p38 kinase alpha; [1]): 40 nM

C[C@@H](NC(=O)c1cccnc1)c1[nH]nc(-c2ccc(F)cc2)c1-c1ccncc1 [Example B-0377]
inhibition at 1 µM (TNF-α): 36% | IC50 (human p38 kinase alpha; [1]): 1290 nM

O=C(CCc1ccccc1)NCc1[nH]nc(-c2ccc(F)cc2)c1-c1ccncc1 [Example B-0076]
inhibition at 1 µM (TNF-α): 21% | inhibition at 1 µM (human p38 kinase alpha): 58%

CCN(CC)CCn1cc(-c2ccnc(F)c2)c(-c2ccc(F)cc2)n1 [Example A-278, N,N-diethyl-3-(4-fluorophenyl)-4-(2-fluoro-4-pyridinyl)-1H-pyrazole-1-ethanamine]
IC50 (TNF-α; [3]): 2300 nM | IC50 (human p38 kinase alpha; [4]): 285 nM

O=C(NCc1[nH]nc(-c2ccc(F)cc2)c1-c1ccncc1)C1CCC1 [Example B-0066]
inhibition at 1 µM (TNF-α): 28% | inhibition at 1 µM (human p38 kinase alpha): 94%

COc1ccc(S(=O)(=O)NCc2[nH]nc(-c3ccc(F)cc3)c2-c2ccncc2)c([N+](=O)[O-])c1 [Example B-0141]
inhibition at 1 µM (TNF-α): 10% | inhibition at 1 µM (human p38 kinase alpha): 78%

O=[N+]([O-])c1cccc(S(=O)(=O)NCc2[nH]nc(-c3ccc(F)cc3)c2-c2ccncc2)c1 [Example B-0114]
IC50 (TNF-α; [2]): 3920 nM | inhibition at 1 µM (human p38 kinase alpha): 45%

COc1ccc(OC)c(S(=O)(=O)N[C@H](C)c2[nH]nc(-c3ccc(F)cc3)c2-c2ccncc2)c1 [Example B-0457]
inhibition at 1 µM (TNF-α): 81% | IC50 (human p38 kinase alpha; [1]): 89 nM

CC(NC(=O)c1cc(F)cc(C(F)(F)F)c1)c1[nH]nc(-c2ccc(F)cc2)c1-c1ccncc1 (centres unmarked) [Example B-0690]
U937 Cell % inhib @ conc. (TNF-α): 36.0% @ 1.0 uM | IC50 (human p38 kinase alpha; [1]): 27100 nM

C[C@@H](NS(=O)(=O)c1ccccc1S(C)(=O)=O)c1[nH]nc(-c2ccc(F)cc2)c1-c1ccncc1 [Example B-0489]
inhibition at 1 µM (TNF-α): 80% | IC50 (human p38 kinase alpha; [1]): 300 nM

C[C@@H](NS(=O)(=O)[C@@]12CC[C@H](CC1=O)C2(C)C)c1[nH]nc(-c2ccc(F)cc2)c1-c1ccncc1 [Example B-0472]
inhibition at 1 µM (TNF-α): 54% | IC50 (human p38 kinase alpha; [1]): 190 nM

O=C(NCc1[nH]nc(-c2ccc(F)cc2)c1-c1ccncc1)c1cc(F)c(F)cc1F [Example B-0296]
inhibition at 1 µM (TNF-α): 36% | IC50 (human p38 kinase alpha; [1]): 8030 nM

CC(=O)OC(C)(C)C(=O)NCc1[nH]nc(-c2ccc(F)cc2)c1-c1ccncc1 [Example B-0043]
IC50 (TNF-α; [2]): 540 nM | IC50 (human p38 kinase alpha; [1]): 220 nM

CC(C)NC(=O)NCc1[nH]nc(-c2ccc(F)cc2)c1-c1ccncc1 [Example B-0149]
IC50 (TNF-α; [2]): 10000 nM | IC50 (human p38 kinase alpha; [1]): 1150 nM

CC(C)C(=O)N[C@H](C)c1[nH]nc(-c2ccc(F)cc2)c1-c1ccncc1 [Example B-0355]
inhibition at 1 µM (TNF-α): 40% | IC50 (human p38 kinase alpha; [1]): 750 nM

C[C@@H](NS(=O)(=O)c1cn(C)cn1)c1[nH]nc(-c2ccc(F)cc2)c1-c1ccncc1 [Example B-0486]
inhibition at 1 µM (TNF-α): 80% | IC50 (human p38 kinase alpha; [1]): 240 nM

O=C(NCc1[nH]nc(-c2ccc(F)cc2)c1-c1ccncc1)c1ccccn1 [Example B-0198]
inhibition at 1 µM (TNF-α): 2% | IC50 (human p38 kinase alpha; [1]): 1200 nM

Cc1ccc(C(=O)NC(C)c2[nH]nc(-c3ccc(F)cc3)c2-c2ccncc2)cc1 (centres unmarked) [Example B-0671]
U937 Cell % inhib @ conc. (TNF-α): 36.0% @ 1.0 uM | IC50 (human p38 kinase alpha; [1]): 6380 nM

O=C(NCc1[nH]nc(-c2ccc(F)cc2)c1-c1ccncc1)c1cc(Cl)cc(Cl)c1 [Example B-0273]
inhibition at 1 µM (TNF-α): 13% | IC50 (human p38 kinase alpha; [1]): 5030 nM

C[C@@H](NC(=O)N1CCCC1)c1[nH]nc(-c2ccc(F)cc2)c1-c1ccncc1 [Example B-0404]
inhibition at 1 µM (TNF-α): 48% | IC50 (human p38 kinase alpha; [1]): 310 nM

COc1ccc(NC(=O)NCc2[nH]nc(-c3ccc(F)cc3)c2-c2ccncc2)cc1 [Example B-0190]
inhibition at 1 µM (TNF-α): 31% | inhibition at 10 µM (human p38 kinase alpha): 59%

Fc1ccc(-c2n[nH]c(NCCCN3CCOCC3)c2-c2ccncc2)cc1 [Example A-286, N-[5-(4-fluorophenyl)-4-(4-pyridinyl)-1H-pyrazol-3-yl]-4-morpholinepropanamine]
IC50 (TNF-α; [3]): 90 nM | IC50 (human p38 kinase alpha; [4]): 57 nM

O=C(NCc1ccc(S(=O)(=O)NCc2[nH]nc(-c3ccc(F)cc3)c2-c2ccncc2)s1)c1ccccc1 [Example B-0255]
inhibition at 1 µM (TNF-α): 68% | IC50 (human p38 kinase alpha; [1]): 320 nM

O=[N+]([O-])c1cc(S(=O)(=O)NCc2[nH]nc(-c3ccc(F)cc3)c2-c2ccncc2)ccc1Cl [Example B-0102]
inhibition at 1 µM (TNF-α): 15% | inhibition at 1 µM (human p38 kinase alpha): 81%

C[C@@H](NC(=O)c1cc(F)ccc1F)c1[nH]nc(-c2ccc(F)cc2)c1-c1ccncc1 [Example B-0520]
inhibition at 1 µM (TNF-α): 67% | IC50 (human p38 kinase alpha; [1]): 400 nM
